Measured values from ChEMBL document CHEMBL1201862, “PubChem BioAssay data set” (2004).
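Cells were grown in 96-well plates and exposed to each compound for 48 hours at five concentrations; endpoints were interpolated linearly between bracketing concentrations, or set to the highest concentration if not reached. GI50 = concentration required for 50% inhibition of growth.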 The source made the active and inactive calls. Rule as the data show it: active = GI50 up to about 1.1 µM and inactive = higher.

Key:
Test in all cases: NCI tumour cell line growth inhibition, 48 h
786-0 = tested on: 786-0
UACC-62 = tested on: UACC-62
ACHN = tested on: ACHN
SK-MEL-5 = tested on: SK-MEL-5
HOP-62 = tested on: HOP-62
IGROV-1 = tested on: IGROV-1
A549 = tested on: A549
KM12 = tested on: KM12
NCI-H23 = tested on: NCI-H23
K562 = tested on: K562
OVCAR-5 = tested on: OVCAR-5
Malme-3M = tested on: Malme-3M
NCI-H226 = tested on: NCI-H226
RXF 393 = tested on: RXF 393
U-251 = tested on: U-251
SK-MEL-28 = tested on: SK-MEL-28
HOP-92 = tested on: HOP-92

Measured: GI50

COc1ccc(-c2onc(-c3c(C)cc(C)cc3C)c2C2=NCCCN2)cc1
inactive: 786-0 31.8 µM | UACC-62 55.2 µM | ACHN 64.1 µM | SK-MEL-5 23 µM | HOP-62 > 100 µM | IGROV-1 > 100 µM | A549 65.8 µM | KM12 46.3 µM | NCI-H23 > 100 µM | K562 28.8 µM | OVCAR-5 > 100 µM | Malme-3M 41.9 µM | NCI-H226 36.4 µM | RXF 393 47.3 µM | U-251 22.3 µM | SK-MEL-28 36.4 µM

COc1ccc(CC(=O)NCCc2ccc(OC)c(OC)c2OC)cc1
inactive: 786-0 41.6 µM | ACHN > 100 µM | SK-MEL-5 > 100 µM | HOP-62 > 100 µM | IGROV-1 > 100 µM | A549 30.1 µM | KM12 > 100 µM | NCI-H23 > 100 µM | K562 > 100 µM | OVCAR-5 > 100 µM | Malme-3M > 100 µM | NCI-H226 > 100 µM | RXF 393 > 100 µM | U-251 > 100 µM | SK-MEL-28 > 100 µM

NC(=S)N/C=C1\C(=O)Oc2ccccc2C1=O
inactive: 786-0 53.5 µM | UACC-62 47.2 µM | ACHN 28.9 µM | SK-MEL-5 42.3 µM | IGROV-1 63.4 µM | A549 97.1 µM | KM12 > 100 µM | HOP-92 35.5 µM | NCI-H23 > 100 µM | K562 > 100 µM | OVCAR-5 > 100 µM | Malme-3M 32.7 µM | NCI-H226 21.9 µM | RXF 393 18.4 µM | U-251 43.8 µM | SK-MEL-28 > 100 µM

OC12c3ccccc3C1CCCCCC21OCCCO1 (stereo unspecified)
inactive: 786-0 > 100 µM | UACC-62 > 100 µM | ACHN > 100 µM | SK-MEL-5 > 100 µM | HOP-62 > 100 µM | IGROV-1 > 100 µM | A549 > 100 µM | KM12 > 100 µM | NCI-H23 > 100 µM | K562 > 100 µM | OVCAR-5 > 100 µM | Malme-3M > 100 µM | NCI-H226 > 100 µM | RXF 393 > 100 µM | U-251 > 100 µM | SK-MEL-28 > 100 µM

O=S1(=O)OCCOS(=O)(=O)C1(Cl)Cl
inactive: 786-0 61.9 µM | UACC-62 31.3 µM | SK-MEL-5 74.8 µM | HOP-62 64.9 µM | IGROV-1 > 100 µM | A549 > 100 µM | KM12 > 100 µM | HOP-92 97.5 µM | NCI-H23 > 100 µM | K562 > 100 µM | Malme-3M > 100 µM | NCI-H226 41.1 µM | SK-MEL-28 > 100 µM

CCCCCCC(/C=N/O)C(C)(O)CCC (stereo unspecified)
inactive: 786-0 > 100 µM | UACC-62 > 100 µM | ACHN > 100 µM | SK-MEL-5 > 100 µM | HOP-62 > 100 µM | IGROV-1 > 100 µM | A549 > 100 µM | KM12 > 100 µM | NCI-H23 > 100 µM | K562 84.3 µM | OVCAR-5 > 100 µM | Malme-3M > 100 µM | NCI-H226 > 100 µM | RXF 393 > 100 µM | U-251 > 100 µM | SK-MEL-28 > 100 µM

Cn1c2c([N+](=O)[O-])cccc2c(=O)c2c(O)cc3c(c21)C=CC(C)(C)O3
inactive: 786-0 32 µM | UACC-62 21.7 µM | ACHN 43.5 µM | SK-MEL-5 28.3 µM | IGROV-1 34.4 µM | A549 34.8 µM | KM12 23.2 µM | NCI-H23 30.8 µM | K562 39.3 µM | OVCAR-5 35.7 µM | Malme-3M 40.2 µM | RXF 393 18.1 µM | U-251 > 100 µM | SK-MEL-28 84.5 µM

COc1ccc(OC)c2c3c(ccc12)C(c1ccccc1)OC3=O (stereo unspecified)
inactive: 786-0 60.7 µM | UACC-62 > 100 µM | ACHN 55.7 µM | SK-MEL-5 47.5 µM | HOP-62 73.5 µM | IGROV-1 > 100 µM | A549 85.5 µM | KM12 56.5 µM | NCI-H23 17.7 µM | K562 47.2 µM | OVCAR-5 > 100 µM | Malme-3M 59 µM | NCI-H226 > 100 µM | RXF 393 39.9 µM | U-251 60.3 µM | SK-MEL-28 52.4 µM

COC(=O)C(C(=O)C(=O)Nc1nnc(S)[nH]1)c1csc(N)n1 (stereo unspecified)
inactive: 786-0 > 100 µM | UACC-62 > 100 µM | ACHN > 100 µM | SK-MEL-5 > 100 µM | HOP-62 > 100 µM | IGROV-1 > 100 µM | A549 > 100 µM | KM12 > 100 µM | NCI-H23 > 100 µM | K562 > 100 µM | OVCAR-5 > 100 µM | Malme-3M > 100 µM | NCI-H226 > 100 µM | RXF 393 > 100 µM | U-251 > 100 µM | SK-MEL-28 > 100 µM

COc1cc(/C=N\O[Si](C)(C)C(C)(C)C)ccc1O[Si](C)(C)C(C)(C)C
inactive: 786-0 32.4 µM | UACC-62 > 100 µM | ACHN 51.4 µM | SK-MEL-5 > 100 µM | HOP-62 > 100 µM | IGROV-1 > 100 µM | A549 > 100 µM | KM12 83.6 µM | HOP-92 25.4 µM | K562 32.5 µM | OVCAR-5 33.7 µM | Malme-3M > 100 µM | RXF 393 36 µM | U-251 30 µM

COc1cc(C(C)c2cc3c(cc2OCCCCCOc2cc4c(cc2C(C)c2cc(OC)c(OC)c(OC)c2)OCO4)OCO3)cc(OC)c1OC (stereo unspecified)
inactive: 786-0 > 100 µM | UACC-62 > 100 µM | ACHN > 100 µM | SK-MEL-5 > 100 µM | HOP-62 > 100 µM | IGROV-1 > 100 µM | A549 > 100 µM | KM12 > 100 µM | NCI-H23 > 100 µM | K562 > 100 µM | OVCAR-5 > 100 µM | Malme-3M > 100 µM | NCI-H226 > 100 µM | RXF 393 > 100 µM | U-251 > 100 µM | SK-MEL-28 > 100 µM

Cn1ccc2c(C(=O)c3ccccc3)cccc2c1=O
inactive: 786-0 39.3 µM | UACC-62 31.6 µM | ACHN 85.9 µM | SK-MEL-5 28.8 µM | HOP-62 31 µM | IGROV-1 > 100 µM | A549 57.4 µM | KM12 42.9 µM | HOP-92 49.2 µM | Malme-3M 45.4 µM | RXF 393 47.5 µM | SK-MEL-28 60.5 µM

CN(C)[C@@H]1C(O)=C(C(=O)NCNCCCC(=O)O)C(=O)[C@@]2(O)C(O)=C3C(=O)c4c(O)cccc4[C@@](C)(O)[C@H]3C[C@@H]12
inactive: 786-0 > 100 µM | UACC-62 > 100 µM | ACHN > 100 µM | SK-MEL-5 > 100 µM | HOP-62 > 100 µM | IGROV-1 > 100 µM | A549 > 100 µM | KM12 > 100 µM | HOP-92 > 100 µM | NCI-H23 > 100 µM | K562 > 100 µM | OVCAR-5 > 100 µM | NCI-H226 > 100 µM | RXF 393 > 100 µM | U-251 > 100 µM | SK-MEL-28 > 100 µM
